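GI50 is the concentration that inhibits growth by half. TGI: total growth inhibition.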
Tests used:
Test in all cases: growth of human tumour cells (NCI), 384-well format
[1] = tested on: A498 renal
[2] = tested on: HT29 colon
[3] = tested on: SF-268 CNS
[4] = tested on: CAKI-1 renal
[5] = tested on: NCI-H23 lung
[6] = tested on: PC-3 prostate
[7] = tested on: DU-145 prostate
[8] = tested on: OVCAR-3 ovarian
[9] = tested on: SNB-19 CNS
[10] = tested on: COLO 205 colon
[11] = tested on: NCI-H522 lung
[12] = tested on: SN12C renal
[13] = tested on: SF-539 CNS
[14] = tested on: BT-549 breast
[15] = tested on: OVCAR-8 ovarian
[16] = tested on: UACC-257 melanoma
[17] = tested on: K-562 leukemia
[18] = tested on: TK-10 renal
[19] = tested on: MDA-MB-231 breast
[20] = tested on: SK-MEL-28 melanoma
[21] = tested on: ACHN renal
[22] = tested on: NCI-H322M lung
[23] = tested on: SK-MEL-5 melanoma
[24] = tested on: IGROV1 ovarian
[25] = tested on: OVCAR-5 ovarian
[26] = tested on: SR leukemia
[27] = tested on: MDA-MB-435 melanoma
[28] = tested on: NCI-H460 NSCLC
[29] = tested on: HCT-116 colon
[30] = tested on: HOP-92 NSCLC
[31] = tested on: UACC-62 melanoma
[32] = tested on: A549 NSCLC
[33] = tested on: CCRF-CEM leukemia
[34] = tested on: UO-31 renal
[35] = tested on: MOLT-4 leukemia
[36] = tested on: M14 melanoma
[37] = tested on: OVCAR-4 ovarian
[38] = tested on: LOX IMVI melanoma
[39] = tested on: NCI-H226 lung
[40] = tested on: MDA-MB-468 breast
[41] = tested on: MCF7 breast
[42] = tested on: MALME-3M melanoma
[43] = tested on: SK-OV-3 ovarian
[44] = tested on: HOP-62 NSCLC
[45] = tested on: HCT-15 colon
[46] = tested on: U251 glioblastoma
[47] = tested on: SW-620 colon
[48] = tested on: HCC-2998 colon
[49] = tested on: 786-0 renal
[50] = tested on: T-47D breast
[51] = tested on: KM12 colon
[52] = tested on: RXF 393 renal
[53] = tested on: HL-60(TB) leukemia
[54] = tested on: NCI/ADR-RES ovarian
[55] = tested on: SF-295 CNS
[56] = tested on: SK-MEL-2 melanoma

Work on `Cc1c2c(nn1C)CSCc1cc(n(C)n1)CSc1cc(c3ccccc3c1)OCCCc1c(C(=O)O)n(C)c3c-2c(Cl)ccc13` yielded a GI50 [1] of 3.69 µM, a TGI [1] of 14.1 µM and a GI50 [2] of 3.49 µM. It also gave a TGI [2] of 11.3 µM, a GI50 [3] of 3.04 µM and a TGI [3] of 11.9 µM. It also gave a GI50 [4] of 5.74 µM, a TGI [4] of 18.2 µM and a GI50 [5] of 0.185 µM. It also gave a TGI [5] of 0.861 µM, a GI50 [6] of 3.04 µM and a TGI [6] of 9.02 µM. The GI50 [7] was 2.98 µM, the TGI [7] was 8.97 µM and the GI50 [8] was 1.76 µM. The TGI [8] was 3.69 µM, the GI50 [9] was 3.5 µM and the TGI [9] was 12 µM. The GI50 [10] was 5.21 µM, the TGI [10] was 17.3 µM and the GI50 [11] was 0.0686 µM. It also gave a TGI [11] of 0.581 µM, a GI50 [12] of 3.4 µM and a TGI [12] of 13.4 µM. It also gave a GI50 [13] of 1.74 µM, a TGI [13] of 4.35 µM and a GI50 [14] of 1.62 µM. For the same compound, the TGI [14] was 4.58 µM, the GI50 [15] was 4.01 µM and the TGI [15] was 15.3 µM. The GI50 [16] was 2.59 µM, the TGI [16] was 9.27 µM and the GI50 [17] was 3.78 µM. The TGI [17] was 13.1 µM, the GI50 [18] was 3.3 µM and the TGI [18] was 12.7 µM. The GI50 [19] was 6.22 µM, the TGI [19] was 18.5 µM and the GI50 [20] was 2.51 µM. For the same compound, the TGI [20] was 7.44 µM, the GI50 [21] was 4.09 µM and the TGI [21] was 15.9 µM. The GI50 [22] was 8.43 µM, the TGI [22] was 20.8 µM and the GI50 [23] was 1.23 µM. It also gave a TGI [23] of 2.69 µM, a GI50 [24] of 2.85 µM and a TGI [24] of 10.9 µM. For the same compound, the GI50 [25] was 3.99 µM, the TGI [25] was 14 µM and the GI50 [26] was 0.0157 µM. For the same compound, the TGI [26] was 0.0329 µM, the GI50 [27] was 1.01 µM and the TGI [27] was 13.2 µM. It also gave a GI50 [28] of 1.96 µM, a TGI [28] of 4.68 µM and a GI50 [29] of 2.41 µM. The TGI [29] was 6.04 µM, the GI50 [30] was 2.08 µM and the TGI [30] was 5.64 µM. It also gave a GI50 [31] of 0.134 µM, a TGI [31] of 0.349 µM and a GI50 [32] of 3.94 µM. It also gave a TGI [32] of 15.1 µM, a GI50 [33] of 0.631 µM and a TGI [33] of 2.33 µM. For the same compound, the GI50 [34] was 3.82 µM, the TGI [34] was 14.6 µM and the GI50 [35] was 0.0856 µM. The TGI [35] was 0.236 µM, the GI50 [36] was 2.8 µM and the TGI [36] was 8.79 µM. It also gave a GI50 [37] of 0.459 µM, a TGI [37] of 3.54 µM and a GI50 [38] of 3.01 µM. It also gave a TGI [38] of 10.1 µM, a GI50 [39] of 2.59 µM and a TGI [39] of 7.4 µM. It also gave a GI50 [40] of 0.126 µM, a TGI [40] of 0.581 µM and a GI50 [41] of 0.336 µM. The TGI [41] was 2.75 µM, the GI50 [42] was 1.76 µM and the TGI [42] was 4.45 µM. It also gave a GI50 [43] of 6.18 µM, a TGI [43] of 19.2 µM and a GI50 [44] of 2.41 µM. For the same compound, the TGI [44] was 10.6 µM, the GI50 [45] was 4.49 µM and the TGI [45] was 15.5 µM. The GI50 [46] was 2.35 µM, the TGI [46] was 4.92 µM and the GI50 [47] was 3.96 µM. It also gave a TGI [47] of 13.6 µM, a GI50 [48] of 1.11 µM and a TGI [48] of 3.94 µM. It also gave a GI50 [49] of 3.06 µM, a TGI [49] of 11.5 µM and a GI50 [50] of 2.3 µM. The TGI [50] was 8.32 µM, the GI50 [51] was 2.13 µM and the TGI [51] was 5.14 µM. It also gave a GI50 [52] of 0.375 µM, a TGI [52] of 2.13 µM and a GI50 [53] of 0.0122 µM. It also gave a TGI [53] of 0.0248 µM, a GI50 [54] of 12 µM and a TGI [54] of 24.4 µM. The GI50 [55] was 1.85 µM, the TGI [55] was 4.23 µM and the GI50 [56] was 0.0454 µM. The TGI [56] was 0.189 µM.
